Experimental data taken from PubChem BioAssay (NCI).
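Step 1: Grow cells in 96-well plates. Step 2: Expose to compound for 48 hours at 5 concentrations. Step 3: Interpolate endpoints linearly; if unreached, use highest concentration. The concentration for 50% growth inhibition is given as GI50. TGI: total growth inhibition.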

Columns and labels:
Assay in all cases: inhibition of tumour cell growth, NCI panel, 48 h
786-0 renal = tested on: 786-0 renal
A549 NSCLC = tested on: A549 NSCLC
DU-145 prostate = tested on: DU-145 prostate
HOP-62 NSCLC = tested on: HOP-62 NSCLC
MDA-MB-435 = tested on: MDA-MB-435
NCI-H23 lung = tested on: NCI-H23 lung
OVCAR-5 ovarian = tested on: OVCAR-5 ovarian
OVCAR-8 ovarian = tested on: OVCAR-8 ovarian
UACC-257 melanoma = tested on: UACC-257 melanoma
SK-MEL-2 melanoma = tested on: SK-MEL-2 melanoma

Structure (SMILES)	TGI (786-0 renal) [µM]	TGI (A549 NSCLC) [µM]	TGI (DU-145 prostate) [µM]	TGI (HOP-62 NSCLC) [µM]	TGI (MDA-MB-435) [µM]	TGI (NCI-H23 lung) [µM]	TGI (OVCAR-5 ovarian) [µM]	TGI (OVCAR-8 ovarian) [µM]	TGI (UACC-257 melanoma) [µM]	TGI (SK-MEL-2 melanoma) [µM]	GI50 (786-0 renal) [µM]	GI50 (A549 NSCLC) [µM]	GI50 (MDA-MB-435) [µM]	GI50 (OVCAR-5 ovarian) [µM]	GI50 (OVCAR-8 ovarian) [µM]	GI50 (SK-MEL-2 melanoma) [µM]	GI50 (UACC-257 melanoma) [µM]
O=C(O)c1ccccc1NC(=S)c1ccccc1	> 100	> 100	> 100	> 100	> 100	> 100	> 100	> 100	> 100	–	–	–	–	–	–	–	–
O=C(/C=C/c1ccc(Cl)c(Cl)c1)c1cccc2ccccc12	13.2	45.2	–	31.4	–	22.5	26.9	4.74	29.5	–	–	–	–	–	–	–	–
O=C(Cc1nc2ccccc2o1)C(=O)Nc1cccc(C(F)(F)F)c1	> 100	> 100	–	> 100	–	> 100	> 100	> 100	> 100	> 100	–	–	–	–	–	–	–
Cc1cc2c(c(C(N)=O)c1C)-c1cc(Cl)cc(Cl)c1C2=O	> 100	–	–	> 100	–	> 100	> 100	> 100	> 100	> 100	–	–	–	–	–	–	–
O=C1OC(=O)c2c1c(-c1ccccc1)nc1ccccc21	> 100	> 100	–	> 100	–	> 100	–	> 100	> 100	> 100	–	–	–	–	–	–	–
N[C@H](COCc1ccccc1)c1ccccc1	> 80.9	> 100	–	> 74.5	–	57.5	87.2	> 100	> 81.1	49.8	–	–	–	–	–	–	–
CC(C)(C)c1cc2nc(c1)C(C(F)(F)F)(C(F)(F)F)OB(Br)OC2(C(F)(F)F)C(F)(F)F	1.81	6.77	–	3.14	–	17.2	8.39	0.427	0.188	11.2	–	–	–	–	–	–	–
CN=C1OC2(c3ccccc3)C3=C(OC(=NC)N2C)C(=O)OC3(c2ccccc2)N1C (configuration not stated)	> 100	> 100	> 100	> 100	–	> 100	> 100	> 100	> 100	> 100	–	–	–	–	–	–	–
C=C1[C@@H](O)O[C@H]2[C@H]1C[C@H](OC(C)=O)[C@]13C(=O)O[C@H]4C[C@](C)(O)[C@H]([C@H]41)C31C=C(C)[C@]2(O)O1	49.1	> 100	–	–	> 100	–	48	58.8	87.2	59.7	22.4	> 100	13.3	21.7	22.7	18.6	25.6
